Laboratory results taken from patent US11524960B2, “Heterobicyclic inhibitors of MAT2A and methods of use for treating cancer” (AGIOS PHARMACEUTICALS, INC., priority 2018, dated 2022).
Where two headings read alike, the source gives them in different places.

Columns and labels:
HCT116 MTAP−/− = test: Inhibition of cellular proliferation (Cell Titer Glo), HCT116 MTAP−/−; format: cell-based, human; conditions: 4 days, IC50 score, read-out: 4 Day Relative Growth Inhibition (MTAP −/−; Example 277)
Procedure, shortened: (§1)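 Proliferation was read as ATP luminescence (Cell Titer Glo) after a 4-day, 37 °C exposure of HCT116 cells differing only in MTAP deletion status. Dosing was 10 points, 3-fold steps, added 24 h post-plating; signal minus blank, relative to 0.2% DMSO control wells, was plotted against log molar concentration.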

[1] = system: SAM in HCT116 human colon carcinoma cell line engineered to delete the MTAP gene (MTAP −/−); test: Cellular assay of target engagement (SAM) by LC-MS/MS; format: cell-based; conditions: IC50 score, read-out: Cell 72 h SAM Inhibition (MTAP −/−; Example 276)
Procedure, shortened: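 Intracellular SAM, the MAT2A product, was measured by quantitative LC-MS/MS against a d3-SAM standard in methanol/acetic acid extracts. Extracts came from HCT116 MTAP −/− cells exposed for 72 h at 37 °C to a ten-point, threefold dilution series of compound, added one day after seeding.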

HCT116 MTAP+/+ = test: Inhibition of cellular proliferation (Cell Titer Glo), HCT116 MTAP+/+; format: cell-based, human; conditions: 4 days, IC50 score, read-out: 4 Day Relative Growth Inhibition (MTAP +/+; Example 277)
Procedure, shortened: as §1

MAT2A homodimer = target: T1, MAT2A homodimer (Homo sapiens, UniProt P31153); test: Biochemical assay: inhibition of MAT2A (phosphate release, PiColorLock Gold); conditions: MAT2A IC50 score; read-out: Enzyme Inhibition (Example 275)
T1 construct: inferred from Ni sepharose purification and imidazole elution; made in house; host or cells: Sf9 insect cells, recombinant baculovirus (Bac to Bac, pFASTBAC1)
Procedure, shortened: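 Phosphate formed alongside SAM was read with PiColorLock Gold and quantified against a potassium phosphate standard curve. Reactions ran 60 min at 25 °C after adding a substrate mix of 500 μM ATP and 400 μM L-methionine (mix concentrations). Compound had first been preincubated 60 min with recombinant Sf9-derived MAT2A homodimer ([…]) in pH 8.0 Tris buffer containing MgCl2, KCl, EDTA and BSA.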

T1 sequence (P31153 whole entry): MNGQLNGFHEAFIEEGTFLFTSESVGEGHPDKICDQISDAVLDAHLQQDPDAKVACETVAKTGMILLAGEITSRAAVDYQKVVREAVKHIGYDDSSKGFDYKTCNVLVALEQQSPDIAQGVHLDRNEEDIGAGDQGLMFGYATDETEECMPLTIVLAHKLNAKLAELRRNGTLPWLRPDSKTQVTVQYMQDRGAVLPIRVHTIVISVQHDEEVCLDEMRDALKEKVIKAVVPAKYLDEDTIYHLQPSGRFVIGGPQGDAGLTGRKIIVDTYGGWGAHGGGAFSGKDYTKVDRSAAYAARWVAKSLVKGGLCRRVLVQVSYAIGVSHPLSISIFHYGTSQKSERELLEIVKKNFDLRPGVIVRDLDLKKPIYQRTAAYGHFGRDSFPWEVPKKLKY

| Compound | IC50 (HCT116 MTAP−/−; Homo sapiens, HCT-116, 96 h) [µM] | IC50 ([1]; Homo sapiens, HCT-116, 72 h) [µM] | IC50 (HCT116 MTAP+/+; Homo sapiens, HCT-116, 96 h) [µM] | IC50 (MAT2A homodimer) [µM] | IC50 (HCT116 MTAP−/−) [µM] | IC50 ([1]; 72 h) [µM] | IC50 (HCT116 MTAP+/+) [µM] |
| --- | --- | --- | --- | --- | --- | --- | --- |
| CCOc1ccc2cn(-c3ccc(OC)cc3)c(=O)c(-c3ccc(OC(F)(F)F)nc3)c2n1 [Example 121-A] | 0.1 to 10 | < 0.1 | 0.1 to 10 | < 0.1 |  |  |  |
| Cn1cnc2ccc(-n3cc4ccc(OCC(F)(F)F)nc4c(-c4ccc(OC(F)F)cc4)c3=O)cc21 [Example 257, 8-(4-(difluoromethoxy)phenyl)-6-(1-methyl-1H-benzo[d]imidazol-6-yl)-2-(2,2,2-trifluoroethoxy)-1,6-naphthyridin-7(6H)-one] | < 0.1 | < 0.1 | 0.1 to 10 | < 0.1 |  |  |  |
| CCOc1ccc2cn(-c3ccc4nn(C)cc4c3)c(=O)c(-c3ccc(-c4nc[nH]n4)cc3)c2n1 [Example 222, 8-(4-(1H-1,2,4-triazol-3-yl)phenyl)-2-ethoxy-6-(2-methyl-2H-indazol-5-yl)-1,6-naphthyridin-7(6H)-one] | 0.1 to 10 | < 0.1 | > 10 | < 0.1 |  |  |  |
| CCCc1ccc2cn(-c3ccc4ncn(C)c4c3)c(=O)c(-c3ccc(OC(F)F)cc3)c2n1 [Example 260, 8-(4-(difluoromethoxy)phenyl)-6-(1-methyl-1H-benzo[d]imidazol-6-yl)-2-propyl-1,6-naphthyridin-7(6H)-one] | < 0.1 | < 0.1 | > 10 | < 0.1 |  |  |  |
| Cn1cc2cc(-n3cc4cnc(NCC(F)(F)F)nc4c(-c4ccc(OC(F)F)cc4)c3=O)ccc2n1 [Example 148, 8-(4-(difluoromethoxy)phenyl)-6-(2-methyl-2H-indazol-5-yl)-2-((2,2,2-trifluoroethyl)amino)pyrido[4,3-d]pyrimidin-7(6H)-one] | < 0.1 | < 0.1 | 0.1 to 10 | < 0.1 |  |  |  |
| CCOc1cnc2cn(-c3ccc4ncccc4c3)c(=O)c(-c3ccc(Cl)cc3)c2n1 [Example 142-A] | 0.1 to 10 | 0.1 to 1 | > 10 | < 0.1 |  |  |  |
| CCOc1ccc2cn(-c3ccc(=O)n(CCS(C)(=O)=O)c3)c(=O)c(-c3ccc(OC(F)F)cc3)c2n1 [Example 107-A] |  |  |  | < 0.1 | < 0.1 | < 0.1 | 0.1 to 10 |
| CCOc1ccc2cn(-c3ccc4nn(C)cc4c3)c(=O)c(-c3ccc(-c4cc[nH]n4)cc3)c2n1 [Example 223, 8-(4-(1H-pyrazol-3-yl)phenyl)-2-ethoxy-6-(2-methyl-2H-indazol-5-yl)-1,6-naphthyridin-7(6H)-one] | 0.1 to 10 | 0.1 to 1 | > 10 | < 0.1 |  |  |  |
| CCOc1ccc2cn(-c3ccc4nn(C)cc4c3)c(=O)c(-c3ccc(Br)cc3)c2n1 [Example 109-A] | < 0.1 | < 0.1 | 0.1 to 10 | < 0.1 |  |  |  |
| O=c1c(-c2ccc(C3CC3)cc2)c2nc(NCC(F)(F)F)ncc2cn1-c1ccc2ncccc2c1 [Example 168, 8-(4-cyclopropylphenyl)-6-(quinolin-6-yl)-2-((2,2,2-trifluoroethyl)amino)pyrido[4,3-d]pyrimidin-7(6)-one] | < 0.1 | < 0.1 | > 10 | < 0.1 |  |  |  |
| CCOc1ccc2cn(-c3ccc4nn(C)cc4c3)c(=O)c(-c3ccc(OC(F)F)cc3)c2n1 [Example 251, 8-(4-(difluoromethoxy)phenyl)-2-ethoxy-6-(2-methyl-2H-indazol-5-yl)-1,6-naphthyridin-7(6H)-one] | < 0.1 | < 0.1 | 0.1 to 10 | < 0.1 |  |  |  |
| CC(C)n1cc2cc(-n3cc4cnc(NCC(F)(F)F)nc4c(-c4ccc(OC(F)F)cc4)c3=O)ccc2n1 [Example 153, 8-(4-(difluoromethoxy)phenyl)-6-(2-isopropyl-2H-indazol-5-yl)-2-((2,2,2-trifluoroethyl)amino)pyrido[4,3-d]pyrimidin-7(6H)-one] | < 0.1 | < 0.1 | > 10 | < 0.1 |  |  |  |

Second part, the compound after the results:

| IC50 (HCT116 MTAP−/−; Homo sapiens, HCT-116, 96 h) [µM] | IC50 ([1]; Homo sapiens, HCT-116, 72 h) [µM] | IC50 (HCT116 MTAP+/+; Homo sapiens, HCT-116, 96 h) [µM] | IC50 (MAT2A homodimer) [µM] | IC50 (HCT116 MTAP−/−) [µM] | IC50 ([1]; 72 h) [µM] | IC50 (HCT116 MTAP+/+) [µM] | Compound |
| --- | --- | --- | --- | --- | --- | --- | --- |
| 0.1 to 10 | 0.1 to 1 | 0.1 to 10 | < 0.1 |  |  |  | CCOc1ccc2cn(-c3ccc4ncncc4c3)c(=O)c(-c3ccc(Cl)cc3)c2n1 [Example 246, 8-(4-chlorophenyl)-2-ethoxy-6-(quinazolin-6-yl)-1,6-naphthyridin-7(6H)-one] |
| 0.1 to 10 | < 0.1 | > 10 | < 0.1 |  |  |  | COc1ccc(-n2cc3cnc(NCC(F)(F)F)nc3c(-c3ccc(CCO)cc3)c2=O)cc1 [Example 205, 8-(4-(2-hydroxyethyl)phenyl)-6-(4-methoxyphenyl)-2-(2,2,2-trifluoroethylamino)pyrido[4,3-d]pyrimidin-7(6H)-one] |
| < 0.1 | < 0.1 | 0.1 to 10 | < 0.1 |  |  |  | Cn1cc2cc(-n3cc4ccc(OCC(F)F)nc4c(-c4ccc(OC(F)F)nc4)c3=O)ccc2n1 [Example 123-A] |
| < 0.1 | < 0.1 | > 10 | < 0.1 |  |  |  | Cn1cc2cc(-n3cc4cnc(NCC(F)(F)F)nc4c(-c4ccc(Br)cc4)c3=O)ccc2n1 [Example 103-A] |
| 0.1 to 10 | 0.1 to 1 | 0.1 to 10 | < 0.1 |  |  |  | COc1ccc(-n2cc3cnc(NCC(F)(F)F)nc3c(-c3ccc(-c4nc[nH]n4)cc3)c2=O)cc1 [Example 206, 8-(4-(H-1,2,4-triazol-3-yl)phenyl)-6-(4-methoxyphenyl)-2-(2,2,2-trifluoroethylamino)pyrido[4,3-d]pyrimidin-7(6H)-one] |
| < 0.1 | < 0.1 | 0.1 to 10 | < 0.1 |  |  |  | Cn1cc2cc(-n3cc4ccc(OCC(F)(F)F)nc4c(-c4ccc(OC(F)F)nc4)c3=O)ccc2n1 [Example 110-A] |
| 0.1 to 10 | < 0.1 | > 10 | < 0.1 |  |  |  | CCOc1ccc2cn(-c3ccc4nn(C)cc4c3)c(=O)c(-c3ccc(OC(F)(F)F)cc3)c2n1 [Example 217, 2-ethoxy-6-(2-methyl-2H-indazol-5-yl)-8-(4-(trifluoromethoxy)phenyl)-1,6-naphthyridin-7(6H)-one] |
| < 0.1 | < 0.1 | > 10 | < 0.1 |  |  |  | O=c1c(-c2ccc(C3CC3)cc2)c2nc(NCC(F)(F)F)ncc2cn1-c1ccc2ncsc2c1 [Example 166, 6-(benzo[d]thiazol-6-yl)-8-(4-cyclopropylphenyl)-2-((2,2,2-trifluoroethyl)amino)pyrido[4,3-d]pyrimidin-7(6)-one] |
| < 0.1 | < 0.1 | > 10 | < 0.1 |  |  |  | COc1ccc(-c2c(=O)n(-c3ccc4c(c3)N(C)CCO4)cc3cnc(NCC(F)(F)F)nc23)cc1 [Example 145, 8-(4-methoxyphenyl)-6-(4-methyl-3,4-dihydro-2H-benzo[b][1,4]oxazin-6-yl)-2-((2,2,2-trifluoroethyl)amino)pyrido[4,3-d]pyrimidin-7(6H)-one] |
| 0.1 to 10 | < 0.1 | 0.1 to 10 | < 0.1 |  |  |  | CCOc1ccc2cn(-c3ccc4nn(C(C)C)cc4c3)c(=O)c(-c3ccc(Cl)cc3)c2n1 [Example 104-A] |
| 0.1 to 10 | < 0.1 | > 10 | < 0.1 |  |  |  | COc1ccc(-n2cc3cnc(NCC(F)(F)F)nc3c(-c3ccc(Br)cc3)c2=O)cc1 [Example 192, 8-(4-bromophenyl)-6-(4-methoxyphenyl)-2-((2,2,2-trifluoroethyl)amino)pyrido[4,3-d]pyrimidin-7(6H)-one] |
| 0.1 to 10 | 0.1 to 1 | > 10 | < 0.1 |  |  |  | COc1ccc(-c2c(=O)n(-c3ccc4c(c3)CCO4)cc3cnc(NCC(F)(F)F)nc23)cc1 [Example 147, 6-(2,3-dihydrobenzofuran-5-yl)-8-(4-methoxyphenyl)-2-((2,2,2-trifluoroethyl)amino)pyrido[4,3-d]pyrimidin-7(6H)-one] |
| < 0.1 | < 0.1 | > 10 | < 0.1 |  |  |  | Cn1cc2cc(-n3cc4ccc(OCC(F)(F)F)nc4c(-c4ccc(Cl)cc4)c3=O)ccc2n1 [Example 254, 8-(4-chlorophenyl)-6-(2-methyl-2H-indazol-5-yl)-2-(2,2,2-trifluoroethoxy)-1,6-naphthyridin-7(6H)-one] |
| < 0.1 | < 0.1 | > 10 | < 0.1 |  |  |  | Cn1nnc2ccc(-n3cc4ccc(NCC(F)(F)F)nc4c(-c4ccc(Cl)cc4)c3=O)cc21 [Example 235, 8-(4-chlorophenyl)-6-(1-methyl-1H-benzo[d][1,2,3]triazol-6-yl)-2-(2,2,2-trifluoroethylamino)-1,6-naphthyridin-7(6H)-one] |
